Measurements reported in PubChem BioAssay AID248 (DTP/NCI, 2004).
Several values for one entry are separate records, joined by “and”; a condition that tells them apart may be missing. Equal values may be shown once. Inconclusive results and toxic doses are left out. No stated cut-off is given here; in the data, active means T/C of 150% or more; inactive means T/C below 125%.

System: L1210 leukemia ip in BDF1 mice, survival T/C
Experiment: NCI In Vivo Anticancer Drug Screen. Data for tumor model L1210 Leukemia (intraperitoneal) in B6D2F1 (BDF1) mice
Details: endpoint: mean survival time, higher = longer survival
Summary of the method: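 Each compound was tested against a transplantable tumor grown in mice. The endpoint was survival, with treated animals benchmarked against vehicle controls as a simple ratio.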

[1] = dose: 100.0 mg/kg/injection, schedule: Q04DX003 (ip), vehicle: Klucel (hydroxypropylcellulose) (HPC)
[2] = dose: 200.0 mg/kg/injection, schedule: Q04DX003 (ip), vehicle: Klucel (hydroxypropylcellulose) (HPC)
[3] = dose: 400.0 mg/kg/injection, schedule: Q04DX003 (ip), vehicle: Klucel (hydroxypropylcellulose) (HPC)
[4] = dose: 100.0 mg/kg/injection, schedule: Q04DX003 (ip), vehicle: saline with Tween-80
[5] = dose: 200.0 mg/kg/injection, schedule: Q04DX003 (ip), vehicle: saline with Tween-80
[6] = dose: 400.0 mg/kg/injection, schedule: Q04DX003 (ip), vehicle: saline with Tween-80
[7] = dose: 25.0 mg/kg/injection, schedule: Q01DX009 (ip), vehicle: Klucel (hydroxypropylcellulose) (HPC)
[8] = dose: 50.0 mg/kg/injection, schedule: Q01DX009 (ip), vehicle: Klucel (hydroxypropylcellulose) (HPC)
[9] = dose: 75.0 mg/kg/injection, schedule: Q01DX009 (ip), vehicle: Klucel (hydroxypropylcellulose) (HPC)

Measured: T/C

COC1=C(N)C(=O)c2nc(-c3nc(C(=O)O)c(C)c(-c4ccc(OC)c(OC)c4O)c3N)ccc2C1=O
inactive: dose: 0.02 mg/kg/injection, schedule: Q01DX009 (ip), vehicle: other 86 % of control | dose: 0.05 mg/kg/injection, schedule: Q01DX009 (ip), vehicle: other 94 % of control | dose: 0.05 mg/kg/injection, schedule: Q04DX002 (ip), vehicle: saline 106 % of control | dose: 0.1 mg/kg/injection, schedule: Q01DX Z (ip), vehicle: alkali diluted with CMC 103 % of control and 109 % of control | dose: 0.1 mg/kg/injection, schedule: Q01DX Z (ip), vehicle: water 105 % of control | dose: 0.1 mg/kg/injection, schedule: Q04DX002 (ip), vehicle: saline 120 % of control | dose: 0.12 mg/kg/injection, schedule: Q01DX001 (iv), vehicle: other 102 % of control | dose: 0.12 mg/kg/injection, schedule: Q01DX009 (ip), vehicle: saline 106 % of control | dose: 0.18 mg/kg/injection, schedule: Q01DX001 (ip), vehicle: other 124 % of control | dose: 0.2 mg/kg/injection, schedule: Q01DX009 (ip), vehicle: other 102 % of control | dose: 0.2 mg/kg/injection, schedule: Q01DX Z (ip), vehicle: alkali diluted with CMC 96 % of control and 106 % of control | dose: 0.2 mg/kg/injection, schedule: Q01DX Z (ip), vehicle: water 105 % of control | dose: 0.2 mg/kg/injection, schedule: Q04DX002 (ip), vehicle: saline 113 % of control | dose: 0.25 mg/kg/injection, schedule: Q01DX001 (iv), vehicle: other 114 % of control | dose: 0.25 mg/kg/injection, schedule: Q01DX009 (ip), vehicle: saline 106 % of control and 116 % of control | dose: 0.25 mg/kg/injection, schedule: Q01DX015 (ip), vehicle: water 118 % of control | dose: 0.3 mg/kg/injection, schedule: Q01DX Z (ip), vehicle: water 102 % of control | dose: 0.39 mg/kg/injection, schedule: Q04DX002 (ip), vehicle: saline 110 % of control | dose: 0.4 mg/kg/injection, schedule: Q01DX Z (ip), vehicle: alkali diluted with CMC 104 % of control and 106 % of control | dose: 0.45 mg/kg/injection, schedule: Q01DX Z (ip), vehicle: saline 107 % of control | dose: 0.5 mg/kg/injection, schedule: Q01DX001 (ip), vehicle: carboxymethylcellulose (CMC) 95 % of control | dose: 0.5 mg/kg/injection, schedule: Q01DX001 (iv), vehicle: other 105 % of control | dose: 0.5 mg/kg/injection, schedule: Q01DX009 (ip), vehicle: saline 108 % of control and 86 % of control | dose: 0.5 mg/kg/injection, schedule: Q01DX015 (ip), vehicle: water 101 % of control | dose: 0.66 mg/kg/injection, schedule: Q01DX Z (ip), vehicle: saline 110 % of control | dose: 0.75 mg/kg/injection, schedule: Q01DX001 (ip), vehicle: other 118 % of control | dose: 0.78 mg/kg/injection, schedule: Q04DX002 (ip), vehicle: saline 106 % of control | dose: 0.8 mg/kg/injection, schedule: Q01DX Z (ip), vehicle: alkali diluted with CMC 96 % of control and 91 % of control | dose: 1.0 mg/kg/injection, schedule: Q01DX001 (iv), vehicle: other 91 % of control | dose: 1.5 mg/kg/injection, schedule: Q01DX001 (ip), vehicle: other 121 % of control | dose: 1.5 mg/kg/injection, schedule: Q01DX001 (ip), vehicle: saline 120 % of control | dose: 2.0 mg/kg/injection, schedule: Q01DX001 (ip), vehicle: carboxymethylcellulose (CMC) 88 % of control | dose: 2.5 mg/kg/injection, schedule: Q01DX001 (oral), vehicle: water 105 % of control | dose: 5.0 mg/kg/injection, schedule: Q01DX001 (oral), vehicle: water 98 % of control | dose: 10.0 mg/kg/injection, schedule: Q01DX001 (oral), vehicle: water 88 % of control

NNC(=O)Cc1nc2ccccc2[nH]c1=O
inactive: dose: 100.0 mg/kg/injection, schedule: Q01DX009 (ip), vehicle: Klucel (hydroxypropylcellulose) (HPC) 102 % of control | [1] 106 % of control | dose: 200.0 mg/kg/injection, schedule: Q01DX009 (ip), vehicle: Klucel (hydroxypropylcellulose) (HPC) 96 % of control | [2] 95 % of control | [3] 98 % of control

C/C=C/C=C/COC(=O)CCCCCCCCC
inactive: dose: 100.0 mg/kg/injection, schedule: Q04DX002 (ip), vehicle: saline 100 % of control | dose: 200.0 mg/kg/injection, schedule: Q04DX002 (ip), vehicle: saline 121 % of control | dose: 400.0 mg/kg/injection, schedule: Q04DX002 (ip), vehicle: saline 108 % of control

C(=C(\C[P+](c1ccccc1)(c1ccccc1)c1ccccc1)c1ccccc1)/c1ccccc1
inactive: dose: 5.0 mg/kg/injection, schedule: Q01DX009 (ip), vehicle: saline with Tween-80 97 % of control | dose: 5.0 mg/kg/injection, schedule: Q04DX003 (ip), vehicle: saline with Tween-80 93 % of control | dose: 20.0 mg/kg/injection, schedule: Q04DX003 (ip), vehicle: saline with Tween-80 86 % of control

COc1cc(CC(=O)C(=O)O)oc(=O)c1
inactive: [4] 102 % of control | [5] 95 % of control | [6] 98 % of control

Cc1ncc(C(=O)O)c2c1OC(C)(C)OC2
inactive: dose: 50.0 mg/kg/injection, schedule: Q01DX001 (ip), vehicle: saline 100 % of control | dose: 100.0 mg/kg/injection, schedule: Q01DX001 (ip), vehicle: saline 91 % of control | dose: 200.0 mg/kg/injection, schedule: Q01DX001 (ip), vehicle: saline 100 % of control | dose: 400.0 mg/kg/injection, schedule: Q01DX001 (ip), vehicle: saline 94 % of control

Cc1ccc(-c2c(O)c(Br)c(-c3ccc(C)cc3C)c(O)c2Br)c(C)c1
inactive: [4] 98 % of control | [5] 93 % of control | [6] 93 % of control

Oc1ccc(C2=CSC3=NCCN23)cc1
inactive: dose: 5.0 mg/kg/injection, schedule: Q01DX001 (ip), vehicle: saline 94 % of control | dose: 10.0 mg/kg/injection, schedule: Q01DX001 (ip), vehicle: saline 93 % of control | dose: 20.0 mg/kg/injection, schedule: Q01DX001 (ip), vehicle: saline 93 % of control | dose: 40.0 mg/kg/injection, schedule: Q01DX001 (ip), vehicle: saline 96 % of control | dose: 80.0 mg/kg/injection, schedule: Q01DX001 (ip), vehicle: saline 104 % of control

CC1(C)N=C(N)N=C(N)N1c1cc(Cl)c(Cl)cc1Cl
inactive: dose: 6.0 mg/kg/injection, schedule: Q01DX009 (ip), vehicle: Klucel (hydroxypropylcellulose) (HPC) 105 % of control | dose: 12.0 mg/kg/injection, schedule: Q01DX009 (ip), vehicle: Klucel (hydroxypropylcellulose) (HPC) 103 % of control | dose: 12.0 mg/kg/injection, schedule: Q04DX003 (ip), vehicle: Klucel (hydroxypropylcellulose) (HPC) 95 % of control | [7] 96 % of control and 102 % of control | dose: 25.0 mg/kg/injection, schedule: Q04DX003 (ip), vehicle: Klucel (hydroxypropylcellulose) (HPC) 101 % of control | [8] 108 % of control | dose: 50.0 mg/kg/injection, schedule: Q04DX003 (ip), vehicle: Klucel (hydroxypropylcellulose) (HPC) 102 % of control

CC(NC(=O)OCc1ccccc1)C(=O)NC(CSCc1ccccc1)C(=O)O (stereo not drawn)
inactive: [4] 97 % of control | [5] 97 % of control | [6] 97 % of control

CNc1cccc(C(=O)O)c1
inactive: dose: 100.0 mg/kg/injection, schedule: Q01DX001 (ip), vehicle: Klucel (hydroxypropylcellulose) (HPC) 91 % of control | [1] 113 % of control | dose: 200.0 mg/kg/injection, schedule: Q01DX001 (ip), vehicle: Klucel (hydroxypropylcellulose) (HPC) 102 % of control | [2] 107 % of control | dose: 400.0 mg/kg/injection, schedule: Q01DX001 (ip), vehicle: Klucel (hydroxypropylcellulose) (HPC) 98 % of control | [3] 97 % of control

CCOC(=O)CCN(CCC(=O)OCC)C1CC1c1ccccc1 (stereo not drawn)
inactive: [1] 100 % of control | [2] 95 % of control | [3] 100 % of control

NC(N)=NC(N)=Nc1ccc(Cl)c(Cl)c1
inactive: [7] 100 % of control | dose: 25.0 mg/kg/injection, schedule: Q01DX009 (ip), vehicle: saline 104 % of control | [8] 104 % of control | dose: 50.0 mg/kg/injection, schedule: Q01DX009 (ip), vehicle: saline 98 % of control | [9] 102 % of control | dose: 100.0 mg/kg/injection, schedule: Q01DX009 (ip), vehicle: saline 91 % of control | [4] 100 % of control

CC1=C(O)C(=O)C(c2c(C)cc(C)c(Br)c2C)=C(O)C1=O
inactive: [9] 117 % of control
